The subject of test [1] is EO-LM2 cells. The experiment in a line: Intravital microscopy of EO-LM2 cells in the LM of vehicle vs. PLX5622-treated mice. Type of test: in vivo, mouse. The method, then: PLX5622 (ChemGood) was formulated into AIN-76A rodent chow at 1200 mg kg^−1 by Research Diets Inc. Formulated chow was irradiated prior to administration. CSF1R-GFP (MacGreen) mice were given AIN-76A±PLX5622 for three days prior to engraftment and continued to feed on formulated or control chow for the duration of the study.
Mice were anaesthetized using isoflurane and the cortical bone was exposed following a sagittal incision in the scalp. The head of the mouse was secured using a stereotactic apparatus. A micromotor high-speed drill (Stoelting) with a carbide 0.75-mm drill bit (Stoelting) was used to thin the skull immediately to the left of the sagittal suture and centered between the coronal suture and the lambdoid suture. The skull-thinned region was circular and approximately 1 mm in diameter and the thinning continued until the meningeal vessels were visible under a dissecting microscope and the remaining bone was about 50 μm thin. PBS was used to clean the surgical site and dissipate heat every 15 sec. High-resolution images of the leptomeninges were obtained through the skull thinned window using a Leica SP8 confocal and multiphoton microscope with a 25× water immersion lens. […]
(§1) Intravital and whole mount images were imported into ImageJ for quantification. […] Tissue bordered were then traced and the mean tdT signal was measured over total tissue area.

For test [2], the system named is GDNF. The test is described as follows: GDNF immunofluorescence on meninges cytospins from EO-LM2-engrafted CSF1R-GFP mice. Type of test: in vivo, mouse. The settings on record: meninges cytospin at endpoint, veh. vs. PLX5622-treated EO-LM2 mice; P=0.0232. The source says:
The mouse meninges were isolated as described by Louveau et al (Louveau, A., Filiano, A. J. & Kipnis, J. Meningeal whole mount preparation and characterization of neural cells by flow cytometry. Current protocols in immunology 121, e50-e50 (2018)). Briefly, the skull cap was removed and placed in a cold PBS bath under a dissecting microscope. Using fine forceps, the meninges were carefully peeled off the skull. Any remaining meninges on the brain surface were carefully removed with fine forceps while limiting the removal of residual brain parenchyma. The meninges were digested for 45 min at 37° C. in digest buffer (1×HBSS with calcium and magnesium (Corning), 5% FBS, 10 mM HEPES, DNase (Sigma Aldrich, 20 U mL^−1), Liberase DL (Sigma Aldrich, 10 mg mL^−1), Liberase TL (Sigma Aldrich, 10 mg mL^−1)) and lightly shaken every 10 min. The digested solution was then passed through a 70-μm cell strainer and a rubber syringe pump was used to gently push through any undigested tissue. […]
Glass 96-well plates were coated with 100 μL of poly-D-lysine (Sigma Aldrich, 0.1 mg mL^−1) in water at room temperature for 1 h and then washed three times with sterile PBS and allowed to air dry for 15 min in a tissue culture hood. […] ImageJ was used to quantify raw integrated pixel density per cell.

In test [3] the test system is EO-LM2 cells. The test is described as follows: Time to LMD progression (HLP score of 0.5) in EO-LM2-engrafted mice, vehicle vs. PLX5622. Type of test: in vivo, mouse. The settings on record: PLX5622 chow 1200 mg kg^−1 from three days prior to engraftment, P=0.0002. The source says:
(§2) FIG. 11A-Q: Meningeal macrophages promote BCC survival through GDNF/NCAM signaling. a, Volcano plot of differentially expressed genes in EO-LM2 vs. −P cells. b, Ncam1 mean fluorescence intensity (MFI) by flow cytometry. n=3 biological replicates. Two-sided, unpaired Student's t-test. c, Representative intravital microscopy (IVM) and quantification of EO-LM2 vs. −NCAM1KO cells in the LM of mice on day 3 post-engraftment. n=3 mice. Two-sided, unpaired Student's t-test. d, Hindlimb paralysis (HLP) incidence and representative brain section H&E of paired EO-LM2 vs. −NCAM1KO mice euthanized when either reached a clinical endpoint (EP). n=5 mice. […] Arrows=CSFIR+ cells (green). n=3 mice; n=18-43 cells quantified/mouse. […] Arrowheads=tdT+1833 cells. i, Flow cytometry quantification of GDNF expression in cells isolated from meninges of EO-LM2 mice. n=3 biological replicates. […] Two-sided, unpaired Student's t-test. m, Representative 3D IVM images of EO-LM2 cells (red, arrowheads) co-localizing with CSF1R+ cells (green) surrounding LM vessels (white) in veh. vs. PLX5622-treated mice on day 3 or 10 post-engraftment. n, Quantification of EO-LM2 and CSF1R co-localizing (co-loc.) or non-co-localizing (no-coloc.) cells in the LM of mice in (m). n−3 mice. […]

Test [4] relates to CSF1R+ cells. The test is described as follows: Depletion of CSF1R+ cells in CSF1R-GFP reporter mice fed PLX5622 chow (whole mount and intravital imaging). It counts as in vivo, mouse. The conditions noted are these: 1200 mg kg^−1 in AIN-76A rodent chow for three days; brain parenchyma and LM. The method, then:
FIG. 16A-E: Meningeal macrophages co-localize with EO-LM2 cells and are depleted with the CSF1R inhibitor, PLX5622. a, Confocal intravital microscopy (IVM) of the brain leptomeninges (LM) showing tdTomato+EO-LM2 cells co-localizing with CSF1R+ myeloid cells in the perivascular space of LM vessels (white). Scale bar=[…]. b, Representative whole mount (brain parenchyma) and IVM (LM) images of CSF1R-GFP reporter mice treated with either control or PLX5622 (1200 mg kg^−1) formulated AIN-76A rodent chow for three days. CSF1R+ cells=green. Vessels=white. c, Quantification of the number of CSF1R+ cells per imaging field of view of mice in (b). Three 10× field of view images acquired per mouse. Unpaired, two-sided Student's t-test. n=3 mice per group. ***P=0.0001. ****P<0.0001. s.e.m. d, Dosing Strategy for experiment in FIG. 11k,l. e, Dosing strategy for experiment in FIG. 11m,n.
PLX5622 (ChemGood) was formulated into AIN-76A rodent chow at 1200 mg kg^−1 by Research Diets Inc. Formulated chow was irradiated prior to administration. CSF1R-GFP (MacGreen) mice were given AIN-76A±PLX5622 for three days prior to engraftment and continued to feed on formulated or control chow for the duration of the study. […]
as §1

The test system of test [5] is CSF1R+ cells. The conditions noted are these: systemic (non-CNS) populations; cited from earlier work.
Test [6] deals with EO-LM2 cells. The test is described as follows: GDNF glucose starvation assay, EO-LM2 cells. The conditions noted are these: glucose free media+1% FBS, GDNF 100 ng mL^−1, 24 h, P=0.0120 vs. vehicle/isotype. Type of test: cell-based, mouse. The method, then:
(§3) 1×10^5 1833 or EO-LM2 cells were seeded in glucose free or complete media+1% FBS in a 12-well plate. The cells were treated with recombinant human/mouse GDNF (PeproTech, 100 ng mL^−1) or vehicle (0.1% BSA in water) and anti-CD49f neutralizing antibody (Invitrogen, 2.5 μg mL^−1) or isotype control. The cells were incubated at 37° C. and 5% CO2 for 24 h (EO-LM2) or 48 h (1833) and then trypsinized and counted with a hemacytometer. The number of live cells in the glucose deprived conditions were then divided by the number of cells in the glucose complete condition to determine the percent of cells alive after glucose deprivation.

Test [7] deals with EO-LM2 cells. The test is described as follows: Intracerebroventricular (ICV) GDNF rescue experiment in tumored, CSF1R-depleted mice. It counts as in vivo, mouse. The settings on record: intraventricular GDNF vs. veh. ICV in PLX5622-treated tumored mice; P=0.0002.
From the text: as §2

For test [8], the system named is 1833 cells. The experiment in a line: GDNF glucose starvation assay, 1833 cells. The conditions noted are these: glucose free media+1% FBS, GDNF 100 ng mL^−1, 48 h, P=0.0203 vs. vehicle/isotype. It counts as cell-based, human. As for the experimental part: as §3

On to `COc1ncc(F)cc1CNc1ccc(Cc2c[nH]c3ncc(C)cc23)c(F)n1` [PLX5622], for which the “initial BCC invasion of the LM” value in test [1] (day 3 post-engraftment, veh. vs. PLX5622) is reported as “did not affect”. In test [1] (day 10 post-engraftment, veh. vs. PLX5622, P<0.0001), the “subsequent BCC expansion within the LM” value is listed as “did prevent”. The “LM cells expressing GDNF” value in test [2] is “dramatic decrease”. For the same molecule, in test [3], the “time to LMD progression (time to HLP score of 0.5)” value was “substantially prolonged”. Further, the “depletion of CSF1R+ cells from the CNS” value in test [4] is recorded as “dramatically depletes”. The “effects on systemic CSF1R+ populations” value in test [5] is given as “modest effects”.

B1: Recombinant GDNF: recombinant human/mouse glial cell line-derived neurotrophic factor (PeproTech) (protein, UniProt P39905 78-211, looked up)
Glial cell line-derived …: SPDKQMAVLPRRERNRQAAAANPENSRGKGRRGQRGKNRGCVLTAIHLNVTDLGLGYETKEELIFRYCSGSCDAAETTYDKILKNLSRNRRLVSDKVGQACCRPIAFDDDLSFLDDNLVYHILRKHSAKRCGCI
On to B1, for which the “protection from cell death in low glucose conditions (percent live cells after glucose deprivation)” value in test [6] and in test [8] was “marked protection from cell death” throughout. In addition, in test [7], the “LMD progression (time to HLP score of 0.5)” value was “accelerated LMD progression”.

(Values after patent US20250189527A1, “COMPOSITIONS AND METHODS FOR DETECTING, PREDICTING RISK OF DEVELOPING, AND TREATING LEPTOMENINGEAL DISEASE” (Duke University, priority 2022, published 2025).)
